Read-outs that look alike come from different tables or passages of the source. Values belong to the compound of their own block, whether it stands above or below them. Residues, ends and D or L forms follow the SMILES beside them. *: point of attachment. Cbz = O=C(OCc1ccccc1)*
Legend:
[1] = tested on: CD34+ cord blood cells; conditions: 7 days culture, UM171 at 5 nM and LSD1 inhibitor (TCP)
Description: (§1) Mouse anti-human antibodies were used to detect CD34 (APC or BV421-BD Biosciences), CD45RA (PE-BD Biosciences), CD86 (PerCP-eFluor710-eBioscience), CD90 (PECY7- BioLegend), and CD201 (APC-BioLegend). Flow cytometry acquisitions were performed on a Canto II cytometer (BD Biosciences) and data analysis was performed using FowJo software (Tree Star, Ashland, Oreg., USA) and GraphPad Prism software. Dead cells were excluded using 7AAD staining.

[2] = tested on: H3K27Ac and H3K4me2 in OCI-AML5; experiment: Flow cytometry of H3K27Ac, H3K4me2 and H3; assay type: cell-based; conditions: OCI-AML5, 24 hrs; UM171 250 nM, Panobinostat 5 nM, TCP 10 μM
[3] = tested on: CD201 and CD86 in OCI-AML5; experiment: FACS analysis of CD201 and CD86; assay type: cell-based; conditions: OCI-AML5, 24 hrs; UM171 250 nM, Panobinostat 5 nM, TCP 10 μM
Description: as §1

[4] = tested on: CD201 and CD86 in OCI-AML1 cells; experiment: Flow cytometry of CD201 and CD86 surface expression; assay type: cell-based; conditions: Panobinostat 5 nM, TCP 5 μM
Description: as §1

[5] = PK assays in mice, intravenous and oral
Description: PK assays were performed in mice (n=3). […] The following pharmacokinetic parameters were calculated.
The compounds were orally administered at 20 mg/kg and plasma samples were collected at 15, 30 minutes and 1, 2, 4, 6 and 8 hours after administration. The following pharmacokinetic parameters were calculated.

[6] = target: T1, RCOR1, LSD1, HDAC2 in OCI-AML1 cells (Homo sapiens, UniProt O60341+Q92769+Q9UKL0); experiment: Western Blot of CoREST members; assay type: cell-based; conditions: OCI-AML1, UM171 250 nM plus MG132 10 μM or MLN2494 100 nM
T1 construct: nucleoplasmic proteins extracted from shLuc or shKBTBD4- transduced OCI-AML1 cells; endogenous in cells; host or cells: OCI-AML1 cells transduced with shLuc or shKBTBD4
Description: Representative blots (upper panel) showing KBTBD4, RCOR1, LSD1, HDAC2 and Nucleolin (NCL, loading control) protein levels. Quantification of RCOR1 protein levels were evaluated in 3 independent experiments (lower panel).
Representative blots (upper panel) showing CUL3, RCOR1 and TUBA (loading control) protein levels. Quantification of RCOR1 protein levels were evaluated in 2 independent experiments (lower panel).
(§2) Total protein extraction was performed in lysis buffer (25 mM tris ph7.5, 150 mM NaCl, 1% NP-40, protease inhibitors).

[7] = tested on: AML samples; experiment: Cell proliferation of cancerous samples from patients
[8] = tested on: CB; experiment: Cell proliferation, CB sample of Table 2; conditions: read-out: Antineoplastic effect on cell proliferation, IC50
[9] = tested on: AML3; experiment: Cell proliferation of cancerous cell lines; assay type: cell-based; conditions: AML3; read-out: Antineoplastic effect of tested compounds on cell proliferation of cancerous AML3 cells, IC50
[10] = target: T2, RCOR1, LSD1, HDAC2 in CD34+ derived cord blood cells (Homo sapiens, UniProt O60341+Q92769+Q9UKL0); experiment: Western Blot of CoREST members in CD34+ cells; assay type: cell-based; conditions: UM171 500 nM / MG132 5 μM, 4 hrs
T2 construct: total proteins extracted from d3 expanded CD34+ derived cord blood cells; endogenous in cells; host or cells: d3 expanded human CD34+ cord blood derived cells (primary)
Description: FIG. 15A illustrate a Western Blot analysis of total proteins extracted from d3 expanded CD34+ derived cord blood cells exposed to DMSO, UM171 (500 nM) or UM171/MG132 (5 μM) for 4 hrs. Representative blot showing KBTBD4, RCOR1, LSD1, HDAC2, CUL3 and TUBA as loading control.
as §2

[11] = orally administered at 20 mg/kg

Compound: N[C@@H]1C[C@H]1c1ccccc1 (racemic) [TCP, tranylcypromine]
CD34+, CD34+CD201+CD90+ and CD34+CD86+ subsets, combination with UM171 [1]: synergistic effect
H3K27Ac and H3K4me2 marks [2]: induces
CD201 and CD86 expression compared to DMSO [3]: upregulation
CD86 expression in shKBTBD4 expressing cells [4]: induces

Compound: COC(=O)c1ccc2c(c1)[nH]c1ncnc(NCCCN3CCCCC3)c12 [UM729]
area under the curve (AUC) [5, 11]: 1.2 µM·h
bioavailability (% F) [5, 11]: 19%
maximal time (tmax) [5, 11]: 48 min
Cmax ([5]; read-out: maximal concentration (Cmax), orally administered at 20 mg/kg): 200 nM

Compound: NS(=O)(=O)OC[C@@H]1C[C@@H](n2ccc3c(N[C@H]4CCc5ccccc54)ncnc32)C[C@@H]1O [MLN2494]
UM171-induced loss of RCOR1 under co-treatment [6]: normal

Compound: COC(=O)c1ccc2[nH]c3nc(Cc4ccccc4)nc(NCCCN4CCCCC4)c3c2c1 [UM134]
IC50 ([7]; read-out: Antineoplastic effect on cell proliferation, IC50, AML sample 04H063): 1 to 10 µM
IC50 ([7]; read-out: Antineoplastic effect on cell proliferation, IC50, AML sample 05H094): 1 to 10 µM
IC50 ([7]; read-out: Antineoplastic effect on cell proliferation, IC50, AML sample 05H149): 1 to 10 µM
IC50 ([7]; read-out: Antineoplastic effect on cell proliferation, IC50, AML sample 06H045): 1 to 10 µM
IC50 ([7]; read-out: Antineoplastic effect on cell proliferation, IC50, AML sample 06H088): 1 to 10 µM
IC50 ([7]; read-out: Antineoplastic effect on cell proliferation, IC50, AML sample 06H117): 1 to 10 µM
IC50 ([7]; read-out: Antineoplastic effect on cell proliferation, IC50, AML sample 07H005): 1 to 10 µM
IC50 ([7]; read-out: Antineoplastic effect on cell proliferation, IC50, AML sample 07H038): 1 to 10 µM
IC50 ([7]; read-out: Antineoplastic effect on cell proliferation, IC50, AML sample 07H045): 1 to 10 µM
IC50 ([7]; read-out: Antineoplastic effect on cell proliferation, IC50, AML sample 07H125): 1 to 10 µM
IC50 ([7]; read-out: Antineoplastic effect on cell proliferation, IC50, AML sample 07H135): 1 to 10 µM
IC50 ([7]; read-out: Antineoplastic effect on cell proliferation, IC50, AML sample 07H151): 1 to 10 µM
IC50 ([7]; read-out: Antineoplastic effect on cell proliferation, IC50, AML sample 08H018): 1 to 10 µM
IC50 ([7]; read-out: Antineoplastic effect on cell proliferation, IC50, AML sample 09H010): 1 to 10 µM
IC50 ([7]; read-out: Antineoplastic effect on cell proliferation, IC50, AML sample 09H046): 1 to 10 µM
IC50 ([7]; read-out: Antineoplastic effect on cell proliferation, IC50, AML sample 09H079): 1 to 10 µM
IC50 ([7]; read-out: Antineoplastic effect on cell proliferation, IC50, AML sample 09H115): 1 to 10 µM
IC50 ([7]; read-out: Antineoplastic effect on cell proliferation, IC50, AML sample 10H022): 1 to 10 µM
IC50 ([7]; read-out: Antineoplastic effect on cell proliferation, IC50, AML sample 10H127): 1 to 10 µM
IC50 ([7]; read-out: Antineoplastic effect on cell proliferation, IC50, AML sample 11H002): 1 to 10 µM
IC50 ([7]; read-out: Antineoplastic effect on cell proliferation, IC50, AML sample 11H046): 1 to 10 µM
IC50 ([7]; read-out: Antineoplastic effect on cell proliferation, IC50, AML sample 11H103): 1 to 10 µM
IC50 ([7]; read-out: Antineoplastic effect on cell proliferation, IC50, AML sample 12H045): 1 to 10 µM
IC50 ([7]; read-out: Antineoplastic effect on cell proliferation, IC50, AML sample 12H058): 1 to 10 µM
IC50 ([7]; read-out: Antineoplastic effect on cell proliferation, IC50, AML sample 12H096): 1 to 10 µM
IC50 ([7]; read-out: Antineoplastic effect on cell proliferation, IC50, AML sample 12H106): 1 to 10 µM
IC50 ([7]; read-out: Antineoplastic effect on cell proliferation, IC50, AML sample 12H151): 1 to 10 µM
IC50 ([7]; read-out: Antineoplastic effect on cell proliferation, IC50, AML sample 13H100): 1 to 10 µM
IC50 ([7]; read-out: Antineoplastic effect on cell proliferation, IC50, AML sample 13H150): 1 to 10 µM
IC50 [8]: 1 to 10 µM

Compound: CC(C)C[C@@H](C=O)NC(=O)[C@H](CC(C)C)NC(=O)[C@H](CC(C)C)NC(=O)OCc1ccccc1 [MG132] (Cbz-Leu-Leu-Leu-aldehyde)
UM171-induced loss of RCOR1 under co-treatment [6]: reduced
UM171-induced loss of LSD1 and RCOR1 proteins under co-treatment [10]: abolishes the loss

Compound: COC(=O)c1ccc2c(c1)[nH]c1ncnc(NCC#CCN3CCCCC3)c12
IC50 [9]: 2 to 5 µM

Compound: COC(=O)c1ccc2c(c1)[nH]c1nc(Cc3ccccc3)nc(NCCNC(=O)C(F)F)c12
IC50 [9]: 2 to 5 µM

Compound: COC(=O)c1ccc2c(c1)[nH]c1nc(Cc3ccccc3)nc(NCCCN3CCOCC3)c12
IC50 [9]: 2 to 5 µM

Compound: Cc1nnc(-c2ccc3c(c2)[nH]c2ncnc(NCCCN4CCCCC4)c23)o1
IC50 [9]: 2 to 5 µM

Compound: Cc1nc(-c2ccc3c(c2)[nH]c2ncnc(NCCCN4CCCCC4)c23)no1
IC50 [9]: 2 to 5 µM

Compound: COC(=O)c1ccc2c(c1)[nH]c1cc(Cc3ccsc3)nc(NCCCN3CCCCC3)c12
IC50 [9]: 2 to 5 µM

Compound: COC(=O)c1ccc2c(c1)[nH]c1nc(C(C)c3ccccc3)nc(NCCCN3CCCCC3)c12 (centres unmarked)
IC50 [9]: 2 to 5 µM

Compound: COC(=O)c1ccc2c(c1)[nH]c1nc(Cc3ccccc3)cc(NCCCN3CCCCC3)c12
IC50 [9]: 2 to 5 µM

Compound: CCOC(=O)c1ccc2c(c1)[nH]c1nc(Cc3ccccc3)nc(NCCCN3CCCCC3)c12
IC50 [9]: 2 to 5 µM

The next lines start with the values.

IC50 [9]: 2 to 5 µM
Compound: COC(=O)c1ccc2c(c1)[nH]c1nc(CCc3ccccc3)nc(NCCCN3CCCCC3)c12

IC50 [9]: 2 to 5 µM
Compound: COC(=O)c1ccc2c(c1)[nH]c1ncnc(NCCc3c[nH]c4ccccc34)c12

IC50 [9]: 1 to 2 µM
Compound: Cn1nnc(-c2ccc3c(c2)[nH]c2ncnc(NCCCN4CCCCC4)c23)n1 [drawing 53]

IC50 [9]: 2 to 5 µM
Compound: C#Cc1cccc(Cc2nc(NCCN(C)CCN)c3c(n2)[nH]c2cc(-c4nnn(C)n4)ccc23)c1

IC50 [9]: 1 to 2 µM
Compound: COC(=O)c1ccc2c(c1)[nH]c1nc(Cc3ccccc3)nc(NCCCN3CCCCC3)c12

IC50 [9]: 2 to 5 µM
Compound: COC(=O)c1ccc2c(c1)[nH]c1nc(Cc3ccccc3)nc(Nc3cccc(CO)c3)c12

IC50 [9]: 0.5 to 1 µM
Compound: COC(=O)c1cnc2c(c1)[nH]c1nc(Cc3ccc4ccccc4c3)nc(N3CCC(N4CCCC4)CC3)c12

IC50 [9]: 1 to 2 µM
Compound: Cn1nnc(-c2ccc3c(c2)[nH]c2ncnc(N[C@H]4CC[C@H](N)CC4)c23)n1

IC50 [9]: 1 to 2 µM
Compound: COC(=O)c1ccc2c(c1)[nH]c1nc(Cc3ccccc3)nc(NCCCCCCCN)c12

IC50 [9]: 1 to 2 µM
Compound: COC(=O)c1ccc2c(c1)[nH]c1ncnc(N[C@H]3CC[C@H](N)CC3)c12

IC50 [9]: 0.5 to 1 µM
Compound: COC(=O)c1ccc2c(c1)[nH]c1nc(Cc3ccccc3)nc(NCCCN(C)CCOCCOCCO)c12

IC50 [9]: 1 to 2 µM
Compound: COC(=O)c1ccc2c(c1)[nH]c1nc(C(OCc3ccccc3)c3ccccc3)nc(NCCCN3CCCCC3)c12 (centres unmarked)

IC50 [9]: 0.5 to 1 µM
Compound: COC(=O)c1ccc2c(c1)[nH]c1nc(Cc3ccccc3)nc(NCC3CCNC3)c12 (centres unmarked)

IC50 [9]: 1 to 2 µM
Compound: COC(=O)c1ccc2c(c1)[nH]c1ncnc(NCCCN)c12

IC50 [9]: 1 to 2 µM
Compound: CNCCCNc1nc(Cc2ccccc2)nc2[nH]c3cc(C(=O)OC)ccc3c12

— US20230073512A1, “MODULATORS OF CULLIN 3 ADAPTOR KBTBD4 AS ANTI-CANCER COMPOUNDS” (UNIVERSITE DE MONTREAL, priority 2019, published 2023)
